{"source": "patent US20230096766A1", "about": "“AMINO ACID HAVING FUNCTIONAL GROUP CAPABLE OF INTERMOLECULAR HYDROGEN BONDING, PEPTIDE COMPOUND CONTAINING SAME AND METHOD FOR PRODUCTION THEREOF” (Chugai Seiyaku Kabushiki Kaisha, priority 2018, published 2023)", "assay": "in vitro", "settings": "human", "note": "*1 amine or outer side, *2 acyl side, *3 side chain or, on linkers, in order; H or OH if unused. Where a SMILES comes first, the peptide text is derived from it. Bridges are numbered along the chain shown (N, C = ends). [ ]: non-standard residue; d: D form. The star is where a group is joined. ξ: configuration not given here. NMeAbu(3,3-F2-piperidino) = CN[C@@H](CCN1CCCC(F)(F)C1)C(=O)O; Hyp = O=C(O)[C@@H]1C[C@@H](O)CN1; NMeF = CN[C@@H](Cc1ccccc1)C(=O)O; NMeGABA = CN(CCCC(=O)[*:2])[*:1]; NMeL = CN[C@@H](CC(C)C)C(=O)O; NMeV = CN[C@H](C(=O)O)C(C)C; NMeA = CN[C@@H](C)C(=O)O; Piperidide = C1CCN(*)CC1; X8 = C1COC[C@@H](C*)N1; Me2NCH2CH2 = CN(C)CC*; NBuGly = CCCCNCC(=O)O; NPrGly = CCCNCC(=O)O; Ethyl(2-OH) = OCC*; ξS = NC(CO)C(=O)O; Sar = CNCC(=O)O; tBu = CC(C)(C)*"}
{"smiles": "CC(C)C[C@@H]1NC(=O)[C@H](Cc2ccccc2)N(C)C(=O)[C@H](Cc2ccccc2)N(C)C(=O)[C@H](CC(C)C)NC(=O)[C@H](CC(C)C)N(C)C(=O)CCCN(C)C(=O)C[C@@H](C(=O)N2CCCCC2)NC(=O)[C@H](C)N(C)C(=O)[C@H](CCN2CCCC(F)(F)C2)N(C)C(=O)[C@H]([C@@H](C)O)NC(=O)[C@H](CC(C)C)N(C)C1=O", "note": "[pd390] ([NMeGABA][NMeL]L[NMeF][NMeF]L[NMeL]T[NMeAbu(3,3-F2-piperidino)][NMeA]D-Piperidide; lactam N-11)", "values": [{"measurement": "Papp", "setting": "Caco-2, Caco-2", "result": 2, "unit": "×10⁻⁶ cm/s"}]}
{"smiles": "CC(C)C[C@@H]1NC(=O)[C@H](Cc2ccccc2)N(C)C(=O)[C@H](C(C)C)N(C)C(=O)C[C@@H](C(=O)N2CCCCC2)NC(=O)[C@H]([C@@H](C)O)NC(=O)[C@H](Cc2ccccc2)N(C)C(=O)[C@H](Cc2ccccc2)NC(=O)[C@H](Cc2ccccc2)N(C)C(=O)CN(C)C(=O)[C@H](C)N(C)C(=O)[C@H](CC(C)C)N(C)C1=O", "note": "[pd229] ([NMeV][NMeF]L[NMeL][NMeA][Sar][NMeF]F[NMeF]TD-Piperidide; lactam N-11)", "values": [{"measurement": "Papp", "setting": "Caco-2, Caco-2 (cm/sec) Papp", "result": 0.41, "unit": "×10⁻⁶ cm/s"}]}
{"smiles": "CC(C)C[C@@H]1NC(=O)[C@H](CC(C)C)N(C)C(=O)[C@H](CC(C)C)N(C)C(=O)[C@H](COC(C)(C)C)NC(=O)[C@H](CC(C)C)N(C)C(=O)[C@@H](C(C)C)NC(=O)C[C@@H](C(=O)N2CCCCC2)NC(=O)[C@H](CC(C)C)N(C)C(=O)[C@H](Cc2ccccc2)NC(=O)[C@@H]2C[C@@H](OCCO)CN2C(=O)[C@H]([C@@H](C)O)NC1=O", "note": "[AP237] ([dV][NMeL]S(tBu)[NMeL][NMeL]LT[Hyp](Ethyl(2-OH))F[NMeL]D-Piperidide; lactam N-11)", "values": [{"measurement": "Papp", "setting": "Caco-2, Caco-2 (cm/sec)", "result": 1.3, "unit": "×10⁻⁶ cm/s"}]}
{"smiles": "CCCCN1CC(=O)N(C)[C@@H](Cc2ccccc2)C(=O)N(C)[C@@H](CC(C)C)C(=O)N[C@@H](C(C)C)C(=O)N(C)[C@@H](CC(C)C)C(=O)N[C@H](C(=O)N2CCCCC2)CC(=O)N(C)CC(=O)N(C)[C@@H](CC(C)C)C(=O)N[C@@H](COC[C@@H]2COCCN2)C(=O)N(C)[C@@H](CC(C)C)C(=O)N[C@@H]([C@@H](C)O)C1=O", "note": "[AP244] ([Sar][NMeL]S(X8)[NMeL]T[NBuGly][NMeF][NMeL]V[NMeL]D-Piperidide; lactam N-11)", "values": [{"measurement": "Papp", "setting": "Caco-2, Caco-2 (cm/sec)", "result": 0.46, "unit": "×10⁻⁶ cm/s"}]}
{"smiles": "CCCN1CC(=O)N(C)[C@@H](C(C)C)C(=O)N[C@H](C(=O)N2CCCCC2)CC(=O)N(C)[C@@H](C)C(=O)N[C@@H](CC(C)C)C(=O)N(C)[C@@H](CC(C)C)C(=O)N(C)[C@@H](Cc2ccccc2)C(=O)NC(COCCN(C)C)C(=O)N(C)[C@@H](Cc2ccccc2)C(=O)N(C)[C@@H](CC(C)C)C(=O)N[C@@H]([C@@H](C)O)C1=O", "note": "(stereo partly drawn) [pd57] ([NMeA]L[NMeL][NMeF][ξS](Me2NCH2CH2)[NMeF][NMeL]T[NPrGly][NMeV]D-Piperidide; lactam N-11)", "values": [{"measurement": "Papp", "setting": "Caco-2, Caco-2", "result": 0.12, "unit": "×10⁻⁶ cm/s"}]}
{"smiles": "CC[C@H](C)[C@@H]1NC(=O)[C@H](C(C)C)N(C)C(=O)CCCN(C)C(=O)C[C@@H](C(=O)N2CCCCC2)NC(=O)[C@H](CC(C)C)N(C)C(=O)[C@H](C)N(C)C(=O)[C@H](Cc2ccc(O)cc2)NC(=O)[C@H](CC(C)C)N(C)C(=O)[C@H](COC(C)(C)C)NC(=O)[C@H](Cc2ccccc2)N(C)C(=O)[C@H](CC(C)C)N(C)C1=O", "note": "[pd125] ([NMeGABA][NMeV]I[NMeL][NMeF]S(tBu)[NMeL]Y[NMeA][NMeL]D-Piperidide; lactam N-11)", "values": [{"measurement": "Papp", "setting": "Caco-2, Caco-2 (cm/sec)", "result": 0.45, "unit": "×10⁻⁶ cm/s"}]}
{"smiles": "CC(C)C[C@H]1C(=O)N[C@@H](COC(C)(C)C)C(=O)N(C)[C@@H](Cc2ccccc2)C(=O)N(C)[C@@H](C(C)C)C(=O)N[C@H](C(=O)N2CCCCC2)CC(=O)N[C@H](C(C)C)C(=O)N(C)[C@@H](C)C(=O)N[C@@H](C(C)C)C(=O)N(C)[C@@H](CC(C)C)C(=O)N[C@@H](Cc2ccc(O)cc2)C(=O)N(C)CC(=O)N1C", "note": "[pd121] ([dV][NMeA]V[NMeL]Y[Sar][NMeL]S(tBu)[NMeF][NMeV]D-Piperidide; lactam N-11)", "values": [{"measurement": "Papp", "setting": "Caco-2, Caco-2 (cm/sec)", "result": 1, "unit": "×10⁻⁶ cm/s"}]}
